The nature of series [1]: Half-life of Compound 128 in vivo. On the procedure: In myeloproliferative disorders, the de novo resynthesis rate of BTK following covalent inhibition by Compound 128 is greater than the de novo BTK resynthesis rate in B-cell malignancies. […] The short half-life of Compound 128 (1 to 2 hours in vivo), coupled with the faster BTK turnover in myelofibrosis in particular, and myeloproliferative disorders in general, requires higher BID dosing. Thus, a 300 mg BID dose in subjects with myelofibrosis should ensure maximal BTK occupancy at trough levels of this drug.

In the next series the target is T1, BTK (Homo sapiens, UniProt Q06187).
T1 construct: endogenous in cells; host or cells: RAMOS B cells, HEL-92, MV-411, MOLM-13, THP-1, UKE-1, primary myeloid cells/monocytes from a healthy donor, primary cells from AML patients
T1 sequence (Q06187 whole entry): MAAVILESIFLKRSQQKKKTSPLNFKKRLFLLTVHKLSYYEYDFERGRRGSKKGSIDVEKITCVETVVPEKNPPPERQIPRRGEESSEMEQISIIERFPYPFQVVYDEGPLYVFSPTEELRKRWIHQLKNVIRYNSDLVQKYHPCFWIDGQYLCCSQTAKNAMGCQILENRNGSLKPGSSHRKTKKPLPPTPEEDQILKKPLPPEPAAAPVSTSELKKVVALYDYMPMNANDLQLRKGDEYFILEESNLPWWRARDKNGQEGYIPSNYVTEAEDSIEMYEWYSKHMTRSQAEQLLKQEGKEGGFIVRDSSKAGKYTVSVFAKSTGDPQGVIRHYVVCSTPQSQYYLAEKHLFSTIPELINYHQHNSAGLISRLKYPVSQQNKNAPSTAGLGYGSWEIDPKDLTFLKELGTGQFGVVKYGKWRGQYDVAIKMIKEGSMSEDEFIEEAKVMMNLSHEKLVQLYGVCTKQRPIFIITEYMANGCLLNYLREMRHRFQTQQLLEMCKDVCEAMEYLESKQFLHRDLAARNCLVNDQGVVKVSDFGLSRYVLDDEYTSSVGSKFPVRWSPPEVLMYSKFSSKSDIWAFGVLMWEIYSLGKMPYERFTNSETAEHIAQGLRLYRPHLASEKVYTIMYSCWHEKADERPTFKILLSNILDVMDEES
In words: BTK resynthesis rate in cells after saturating exposure to and washout of Compound 128 (free BTK by ELISA). In kind it is cell-based. On the procedure: Various cell types and tissues show different rates of BTK synthesis (see FIG. 1). Cells were cultured with a saturating concentration of Compound 128 to occupy all BTK protein (0% free BTK). This was followed by a washout of Compound 128 and culturing for up to 48 hours with no BTK inhibitor to allow the cells to synthesize new BTK protein. The rate of BTK protein synthesis was determined by measuring the free BTK by ELISA at different time points. RAMOS B cells resynthesized BTK at a rate of only 26% per day, while Hel-92 and MV-411 cells resynthesized BTK at a rate of over 100% per day. […] The rate of BTK resynthesis in naïve AML patients was roughly 30% per day, with low inter-patient variability.
BTK resynthesis in each cell type was measured as described in Example 1. The left graph (see FIG. 2) depicts the BTK resynthesis rate in monocytes from a normal individual following a two hour exposure to Compound 128. The BTK resynthesis rate was determined to be 61% per day in normal monocytes. The right graph (see FIG. 2) depicts the BTK resynthesis rate in the presence of BTK inhibitor Compound 128 in two different cell lines.
BTK resynthesis was measured in additional AML and MF cell types as described in Example 1 following a one hour exposure to Compound 128 (see FIG. 3). MOLM-13 cells resynthesized BTK at a rate of only 21% per day, while THP-1 cells resynthesized BTK at a rate of 84% per day and UKE-1 cells resynthesized BTK at a rate of over 100% per day.
(In general: An ELISA detects its analyte on a solid surface through an enzyme-linked reagent.)

What is called half-life is how long it takes for the measured level to halve. On to `C=CC(=O)N1CCC(F)(CNc2ncnc(N)c2-c2ccc(Oc3ccccc3)cc2)CC1` [Compound 128, 1-(4-(((6-amino-5-(4-phenoxyphenyl)pyrimidin-4-yl)amino)methyl)-4-fluoropiperidin-1-yl)prop-2-en-1-one], for which the half-life in series [1] fell in the range of 1 to 2 h. Further, the “initial BTK resynthesis rate” value on BTK (HEL-92 (myelofibrosis) cells) came out at 43 % per day; on BTK (MV-411 cells (AML)), 83 % per day. Moreover, the “BTK resynthesis rate after repeated exposure” value at BTK (HEL-92 (myelofibrosis) cells, repeated exposure) came to 28 % per day. Moreover, the “change of BTK resynthesis rate after treatment” value on BTK (Hel-92 cells, after 4 days of treatment) was “decreased BTK resynthesis rate”; at BTK (MV-411 cells, after 7 days of treatment), “decreased BTK resynthesis rate”. Besides, the BTK resynthesis rate result on BTK (Hel-92 cells, saturating concentration, washout, culture up to 48 hours) is listed as “over 100 % per day”; on BTK (MOLM-13 cells, one hour exposure), 21 % per day; on BTK (MV-411 cells, saturating concentration, washout, culture up to 48 hours), “over 100 % per day”; at BTK (RAMOS B cells, saturating concentration, washout, culture up to 48 hours) it was 26 % per day; at BTK (THP-1 cells, one hour exposure), 84 % per day; on BTK (UKE-1 cells, one hour exposure) it was “over 100 % per day”. For the same compound, the BTK resynthesis rate is on record as 67 % per day on BTK (culture of primary myeloid cells from a healthy donor); 57 % per day on BTK (cultures of primary cells from patients with relapsed AML); 61 % per day at BTK (monocytes from a normal individual, two hour exposure); “roughly 30 % per day” on BTK (naïve AML patients). For the same compound, the “BTK resynthesis rate after continued exposure” value on BTK (MV-411 cells (AML), continued exposure for seven days) amounted to 44 % per day. Further, on BTK (following covalent inhibition by Compound 128), the “de novo BTK resynthesis rate, HEL-92 cells compared to Ramos B-lymphoblastoid cell line” value is listed as “four-fold higher”.

For the origin of these results see patent publication US20250064805A1, “Methods of Treating Myeloproliferative Disorders Based on BTK Occupancy & Resynthesis Rate” (Telios Pharma Inc., priority 2022, published 2025).
